Measured values taken from patent US20160244802A1, “Protein Demethylases Comprising a JMJC Domain” (The University of North Carolina at Chapel Hill, priority 2005, published 2016).

Legend:
[1] = test system: AR target genes PSA, NKX3.1 and TMPRSS22; experiment: Quantitative RT-PCR of AR target genes in LNCaP cells; type: cell-based; details: 50 nM, 8 hours
Description: (§1) Recombinant JMJD1A was mixed with in vitro translated […] AR in the absence or presence of R1881 (100 nM). After immunoprecipitation with anti-JHDM2A antibody, AR was detected by autoradiography. […] LNCaP cells were cultured in charcoal-stripped serum medium for three days and then treated without or with R1881 (50 nM) for 1 hour before being processed for ChIP analysis. […] LNCaP cells were transfected with a scramble (siCON), siJHDM2A or siLSD1 as indicated. Tubulin served as a loading control. […] The cells were treated as in FIG. 14B except the cells were collected for RNA isolation 8 hours after the R1881 treatment. […] The LNCaP cells were treated with siJHDM2A or siCON for three days and then 50 nM R1881 for 1 hour before processed for ChIP assays using antibodies as indicated.
For ChIP assay in LNCaP cells, the cells were cultured in charcoal-stripped serum medium for three days before treatment with R1881 (50 nM) for 1 hour. […]
To directly test and compare the role of JHDM2A and LSD1 in hormone-dependent transcriptional activation, we used siRNA to knockdown JHDM2A and LSD1 in LNCaP cells (FIG. 14C). We then evaluated the effects of JHDM2A or LSD1 knockdown on the hormone induced activation of three AR target genes, PSA, NKX3.1 and TMPRSS22, by quantitative RT-PCR. […]

[2] = test system: PSA enhancer and NKX3.1 gene; experiment: ChIP assay in LNCaP cells; type: cell-based; details: 50 nM, 1 hour
Description: as §1
For ChIP assay in LNCaP cells, the cells were cultured in charcoal-stripped serum medium for three days before treatment with R1881 (50 nM) for 1 hour. The ChIP assay was performed essentially as previously described (Yoon, et al. (2005) Mol. Cell Biol. 25:324-335). Primers for RT-PCR analysis of the PSA mRNA were 5′-GCCCACCCAGGAGCCAGCACT-3′ (SEQ ID NO:27) and 5′-GGCCCCCAGAATCACCCGAGCAG-3′ (SEQ ID NO:28).

[3] = test system: modified histone H3 peptide substrates (H3K4 me3, me2, me1); experiment: Histone demethylase assay with modified histone H3 peptide substrates, mass spectrometry; type: biochemical

Row | Molecule | transcription from AR target genes [1] | binding of the AR to the PSA enhancer [2] | removal of the me1 modification state ([3]; H3K4me1 peptide, in vitro) | demethylation of the modified substrate ([3]; H3K4me3 and me2 peptides, recombinant Flag-RBP2)
1 | C[C@]1(O)CC[C@H]2[C@@H]3CCC4=CC(=O)CCC4=C3C=C[C@@]21C [R1881] | robustly activated transcription | strong binding | – | –
2 | RBP2: Flag-tagged JmjC domain H3K4 demethylase expressed in SF9 cells by baculovirus, affinity purified | – | – | failed to catalyze removal | 80-90%
